Structures can show the parent of a compound that is named as a salt.
How the values were obtained:
Abelson 8.1 lymphoma = test: Tumor Cell Cytotoxicity test (TCC test), Abelson 8.1 lymphoma; assay type: cell-based; details: 5 μg, 72 hours; alkaline phosphatase assay
Description: (§1) As indicated above, all of the compounds of formula I are anti-tumor agents and are, therefore, useful in inhibiting the growth of various lymphomas, sarcomas, myelomas and leukemia cell lines.
(§2) In flat bottom microtiter plates (Nunc Roskilde, Denmark) were placed Abelson 8.1 lymphoma, YAC, L1210, P815, Meth A fibrosarcoma or fresh human neuroblastoma tumor cells in DMEM+10% fetal calf serum and the tumor cell-containing plates were incubated with 1,3 and 5 μg of the test compound for a period of 6 to 72 hours. The number of tumor cells present in the Abelson 8.1, YAC, L1210 and P815 assays was determined by measuring the alkaline phosphatase as follows:
(§3) The tumor cell plates were centrifuged (500×g) for ten minutes and the supernatant flicked off. Without further washing, 100 μl of buffer containing 20 μl of diethanolamine, 2 μM of MgCl2.6H2 O, 2.5 μM of p-nitrophenylphosphate and 10 mg Triton X-100 were added. The samples were incubated for 60 minutes at room temperature and the enzymatic reaction was terminated by the addition of 100 μl of 0.5N NaOH. The absorbance was then measured at 405 nm using a Titertek Multiskan apparatus.
(§4) At a concentration of 5 μg and an incubation period of 72 hours, the following results were obtained: […]

YAC = test: Tumor Cell Cytotoxicity test (TCC test), YAC; assay type: cell-based; details: 5 μg, 72 hours; alkaline phosphatase assay
Description: as §1, §2, §3, §4

L1210 = test: Tumor Cell Cytotoxicity test (TCC test), L1210; assay type: cell-based; details: 5 μg, 72 hours; alkaline phosphatase assay
Description: as §1, §2, §3, §4

P815 = test: Tumor Cell Cytotoxicity test (TCC test), P815; assay type: cell-based; details: 5 μg, 72 hours; alkaline phosphatase assay
Description: as §1, §2, §3, §4

Meth A fibrosarcoma = test: Tumor Cell Cytotoxicity test (TCC test), Meth A fibrosarcoma; assay type: cell-based; details: 5 μg, 72 hours; 3H-thymidine uptake
Description: as §1, §2
(§5) The number of tumor cells present in the Meth A fibrosarcoma and human neuroblastoma assays was measured by ^3 H-thymidine uptake as follows:
(§6) After 72 hours, the cells are thoroughly washed, and each well treated with ca. 0.1 μC ^3 H-thymidine. After 4-6 hours, the cells are collected using a commercial cell harvester, and the radioactivity in the […] is measured in a scintillation counter.
as §4

[1] = system: human neuroblastoma tumor cells; test: Tumor Cell Cytotoxicity test (TCC test), fresh human neuroblastoma tumor cells; assay type: cell-based; details: 5 μg, 72 hours; 3H-thymidine uptake
Description: as §1, §2, §5, §6, §4

Abelson 8.1 tumor cells = test: Influence on Cytotoxicity of ET-18-OCH3 test; assay type: cell-based; details: 5 μg test compound, 72 hours; mouse bone marrow cell macrophages preincubated with 10 μg ET-18-OCH3 for 24 hours; ET-18-OCH3 alone set at 100%
Description: Bone marrow cell macrophages (10^5 /well) obtained from [BALB/CX57/BL6 ]Fl mice were incubated with 10 μg of 1-octadecyl-2-methoxy-3-phosphoryl choline (ET-18-OCH3) for 24 hours in flat bottom microtiter plates (Nunc Roskilde, Denmark), after which time they are centrifuged and washed once. Abelson 8.1 tumor cells in DMEM+10% fetal calf serum and 1,3 and 5 μg of the test compound were then added to the plates. With the cytotoxicity of ET-18-OCH3 (10 μg) alone set at 100%, the inhibition or enhancement of the cytotoxic effect, as measured by an alkaline phosphatase assay, was determined and values recorded after 72 hours for 1, 3 and 5 .eta.g of the test substance. At a concentration of 5 μg, the following results were obtained: […]

Meth A sarcoma cells = test: Meth A sarcoma implanted in CBF1 mice, tumor growth and survival; assay type: in vivo; details: p.o., 50 μg, 28 days; 7.3×10^6 Meth A sarcoma cells implanted; no control animals survived
Excerpt: Meth A fibrosarcoma cells were induced in BALB/C mice by administering methylcholanthrene according to the procedure of Old, et al. (L. J. Old, E. A. Boyse, D. A. Clarke, and E. Carswell, Ann. N.Y. Acad. Sci., 101, 80 (1962). These tumor cells were harvested from the peritoneal cavity 10 to 12 days after administration of methylcholanthrene. Ten CBF1 mice of 10-12 week age were each implanted with 7.3×10^6 Meth A sarcoma cells to serve as control. A second group of ten CBF1 mice were each implanted with 7.3×10^6 Meth A sarcoma cells and on day one after implant each mouse was treated p.o. with 5-50 μg of the test compound per day for a total of twenty or twenty-seven days. Tumor growth and survivors were assayed on days 7, 14, 21 and 28 after tumor implantation. Under these conditions, none of the control group animals survived, whereas 5 out of 10 animals which were administered 50 μg of the compound of Example 2 for 28 days survived and 8 out of 10 animals which were administered 50 μg of the compound of Example 5 for 28 days survived.

Compound	% Inhibition Abel. (Abelson 8.1 lymphoma)	% Inhibition YAC (YAC) [%]	% Inhibition L1210 (L1210) [%]	% Inhibition P815 (P815) [%]	% Inhibition Meth A (Meth A fibrosarcoma) [%]	% Inhibition neuro. [1] [%]	% Enhancement (of the cytotoxic effect of ET-18-OCH3) (Abelson 8.1 tumor cells) [%]	animals survived (Meth A sarcoma cells)
CCCCCCCCCCCCCCCCCCC1(COP(=O)([O-])OCC[N+](C)(C)C)CCC(=O)O1 (stereo not shown) [Example 2, 2-[hydroxy(tetrahydro)-2-(octadecyl-5-oxo-2-furanyl)methoxyphosphinyloxy]-N,N,N-trimethyl-ethanaminium hydroxide, inner salt-4-oxide]	97%	71	69	84	98	59	99.5	5 out of 10
CCCCCCCCCCCCCCCCCCOCC1(COP(=O)([O-])OCC[N+](C)(C)C)CCCO1 (stereo not shown) [Example 5, 2-[(2-octadecyloxymethyltetrahydro-2-furanylmethoxy)-hydroxyphoshphinyloxyl]-N,N,N-trimethylethanaminium hydroxide inner salt-4-oxide]	98%	96					> 90	8 out of 10
CCCCCCCCCCCCCCCCCCC1(COP(=O)([O-])OCC[N+](C)(C)C)COC(=O)C1 (stereo not shown) [Example 6, 2-[hydroxy(tetrahydro)-3-(octadecyl-5-oxo-3-furanyl)methoxyphosphinyloxy]-N,N,N-trimethyl ethanaminium hydroxide, inner salt-4-oxide]	50-70%						90	
CCCCCCCCCCCCCCCCCCC1(COP(=O)([O-])OCC[N+](C)(C)C)CCOC1 (stereo not shown) [Example 7, 2-[(3-octadecyltetrahydro-3-furanylmethoxy)-hydroxyphosphinyloxy]-N,N,N-trimethyl ethanaminium hydroxide, inner salt-4-oxide]	70-90%						90	
